According to US20240279207A1, “SUBSTITUTED ACYL SULFONAMIDES FOR TREATING CANCER” (The Broad Institute, Inc., priority 2020, published 2024):
pIC50: −log10 of the molar value. Like-named read-outs stand apart in the source and are kept apart here.

Key:
[1] = biological target: T1, Recombinant human His-tagged Kat6a protein (amino acids 194-810) (Homo sapiens, UniProt Q92794); test: Kat6a activity assay (TR-FRET, acetylation of Histone-H4-derived peptide); type: biochemical; details: 60 mins at 22° C., 220 nM H4 peptide, 600 nM Acetyl Coenzyme A, read-out: KAT6A - DPF/HAT domain IC50 [mol/l] (arithmetic mean)
T1 construct: Kat6a protein (amino acids 194-810); His

[2] = biological target: T2, Recombinant human GST-tagged Kat6b protein (431-end) (Homo sapiens, UniProt Q8WYB5); test: Kat6b activity assay (TR-FRET, acetylation of Histone-H4-derived peptide); type: biochemical; details: 30 mins at 22° C., 500 nM H4 peptide, 600 nM Acetyl Coenzyme A, read-out: KAT6B activity assay IC50 [mol/l] (arithmetic mean)
T2 construct: Kat6b protein (431-end, N-terminal GST-tag); GST (N)
Experimental: Kat6b inhibitory activities of the compounds described in the present invention were quantified using a Fluorescence Resonance Energy Transfer (TR-FRET) assay which measures acetylation of a synthetic, biotinylated Histone-H4-derived peptide by the enzyme.
In this case 50 nl DMSO were used instead of compounds. […] IC50 values were determined by regression analysis based on a 4 parameter equation (minimum, maximum, ICM, Hill; Y=Max+(Min−Max)/(1+(X/ICso) Hill) using the Screener Software (Genedata).

[3] = test system: ESR1 transcription in MVLN cells; test: MVLN reporter assay: repression of ESR1 transcription (luciferase signal); type: cell-based; details: luciferase signal after 24 h, read-out: MVLN reporter assay, IC50 [M] (arithmetic mean)
In short: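 MVLN cells, expressing ER and stably carrying a vitellogenin A2 ERE-luciferase reporter, treated with compound in duplicate; luciferase read after 24 h with Steadylite plus. Cell density checked in parallel by Alamar Blue fluorescence (530/590 nm, 2 h) before the luciferase read.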

ZR-75-1 cells = test: ZR-75-1 proliferation assay; type: cell-based; details: Alamar Blue, read-out: ZR75-1 proliferation assay, EC50 [M] (arithmetic mean)
In short: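 ZR-75-1 cells (focal KAT6A amplification), 3000 per well in RPMI 1640 with 2.5% FBS, were exposed to compound in triplicate for 144 h at 37 °C, 5% CO2. Viability read by Alamar Blue fluorescence at 590 nm after 2 h.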

LCLC97TM1 = LCLC97TM1 proliferation assay; type: cell-based; details: read-out: LCLC97TM1 proliferation assay, EC50 [M] (arithmetic mean)
MDA-MB-436 cells = test: MDA-MB-436 proliferation assay (negative control cell line); type: cell-based; details: 144 h, Alamar Blue, read-out: MDA-MB-436 proliferation assay, EC50 [M] (arithmetic mean)
In short: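 MDA-MB-436 cells (KAT6A deletion, low KAT6A protein) seeded at 3000 cells/well in DMEM/Ham's F12 with 2.5% FBS, treated in triplicate for 144 h at 37° C, 5% CO2. Viability read by Alamar Blue fluorescence at 590 nm after 2 h.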

[4] = Homo sapiens, LCLC-97TM1, LCLC97TM1

T2 sequence (Q8WYB5 431-2073): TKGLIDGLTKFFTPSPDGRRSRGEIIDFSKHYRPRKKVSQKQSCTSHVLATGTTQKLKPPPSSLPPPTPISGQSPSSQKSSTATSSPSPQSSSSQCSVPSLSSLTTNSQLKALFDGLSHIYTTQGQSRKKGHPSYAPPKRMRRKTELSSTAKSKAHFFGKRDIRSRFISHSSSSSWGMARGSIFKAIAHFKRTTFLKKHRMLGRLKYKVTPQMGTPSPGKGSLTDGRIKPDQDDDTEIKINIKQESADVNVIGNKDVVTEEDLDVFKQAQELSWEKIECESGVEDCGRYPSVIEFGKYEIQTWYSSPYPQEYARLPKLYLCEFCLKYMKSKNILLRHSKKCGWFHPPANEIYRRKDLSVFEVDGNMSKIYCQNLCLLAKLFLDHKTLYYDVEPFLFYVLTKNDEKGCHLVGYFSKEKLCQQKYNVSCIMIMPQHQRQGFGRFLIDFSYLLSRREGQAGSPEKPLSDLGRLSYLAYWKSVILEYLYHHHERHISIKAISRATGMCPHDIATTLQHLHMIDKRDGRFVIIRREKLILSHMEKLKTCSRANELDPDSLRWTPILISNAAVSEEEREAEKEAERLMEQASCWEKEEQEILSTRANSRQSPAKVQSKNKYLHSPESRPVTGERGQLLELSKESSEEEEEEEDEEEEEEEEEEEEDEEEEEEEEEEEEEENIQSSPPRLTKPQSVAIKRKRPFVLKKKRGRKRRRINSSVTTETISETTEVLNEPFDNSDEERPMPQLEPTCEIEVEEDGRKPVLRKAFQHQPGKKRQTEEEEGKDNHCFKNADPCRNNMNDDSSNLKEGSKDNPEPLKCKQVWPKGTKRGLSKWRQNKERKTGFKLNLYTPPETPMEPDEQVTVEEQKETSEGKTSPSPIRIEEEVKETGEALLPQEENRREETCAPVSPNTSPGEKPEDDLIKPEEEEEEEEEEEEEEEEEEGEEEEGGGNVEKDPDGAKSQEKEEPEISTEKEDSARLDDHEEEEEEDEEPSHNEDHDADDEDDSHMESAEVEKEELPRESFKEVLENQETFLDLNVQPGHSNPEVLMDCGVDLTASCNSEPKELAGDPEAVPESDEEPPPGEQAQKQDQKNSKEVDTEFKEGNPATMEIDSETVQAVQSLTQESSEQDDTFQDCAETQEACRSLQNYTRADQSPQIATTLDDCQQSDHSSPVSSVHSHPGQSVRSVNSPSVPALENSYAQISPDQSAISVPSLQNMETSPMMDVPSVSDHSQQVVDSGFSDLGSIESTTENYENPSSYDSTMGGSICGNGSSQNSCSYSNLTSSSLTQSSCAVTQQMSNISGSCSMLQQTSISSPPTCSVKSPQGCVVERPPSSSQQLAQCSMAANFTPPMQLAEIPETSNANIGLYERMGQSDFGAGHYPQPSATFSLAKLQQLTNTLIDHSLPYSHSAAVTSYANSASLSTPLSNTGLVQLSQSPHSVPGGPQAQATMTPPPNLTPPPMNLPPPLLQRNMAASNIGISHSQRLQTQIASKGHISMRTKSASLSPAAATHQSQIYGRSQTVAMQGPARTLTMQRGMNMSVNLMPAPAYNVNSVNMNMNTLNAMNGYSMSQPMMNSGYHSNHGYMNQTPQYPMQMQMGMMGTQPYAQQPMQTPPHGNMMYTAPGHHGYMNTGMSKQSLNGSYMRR
T1 sequence (Q92794 194-810): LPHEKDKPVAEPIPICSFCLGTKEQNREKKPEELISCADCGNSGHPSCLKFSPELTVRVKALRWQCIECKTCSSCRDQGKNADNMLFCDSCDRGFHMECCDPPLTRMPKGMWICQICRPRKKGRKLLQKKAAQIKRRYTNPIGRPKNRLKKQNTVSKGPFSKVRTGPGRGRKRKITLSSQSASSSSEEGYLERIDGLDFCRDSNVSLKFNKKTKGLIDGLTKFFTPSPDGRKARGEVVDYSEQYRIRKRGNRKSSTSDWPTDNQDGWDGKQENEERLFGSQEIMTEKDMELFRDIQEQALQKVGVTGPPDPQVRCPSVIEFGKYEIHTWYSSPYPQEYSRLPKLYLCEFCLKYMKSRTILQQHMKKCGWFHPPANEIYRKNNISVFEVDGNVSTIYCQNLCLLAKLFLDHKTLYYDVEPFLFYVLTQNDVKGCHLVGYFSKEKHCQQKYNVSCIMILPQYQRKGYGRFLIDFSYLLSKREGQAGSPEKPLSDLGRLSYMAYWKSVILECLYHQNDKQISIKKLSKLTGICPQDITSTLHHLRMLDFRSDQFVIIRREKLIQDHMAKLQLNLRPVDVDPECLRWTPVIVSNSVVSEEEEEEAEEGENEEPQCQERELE

| Compound | pIC50 [1] | pIC50 [2] | IC50 ([3]; Homo sapiens, MVLN, 24 h) [M] | EC50 (ZR-75-1 cells; Homo sapiens, ZR-75-1, 144 h) [M] | EC50 (LCLC97TM1; [4]) [M] | EC50 (MDA-MB-436 cells; Homo sapiens) [M] | EC50 (LCLC97TM1; LCLC97TM1) [M] | IC50 [3] [M] | EC50 (ZR-75-1 cells; 144 h) [M] | EC50 (MDA-MB-436 cells) [M] |
| --- | --- | --- | --- | --- | --- | --- | --- | --- | --- | --- |
| CCOc1ccc(C(C)CC)cc1S(=O)(=O)NC(=O)c1cc2c(F)cc(N3CCC3)cc2o1 (racemic) [Example 207, 6-(Azetidin-1-yl)-N-[(5-sec-butyl-2-ethoxyphenyl)sulfonyl]-4-fluoro-1-benzofuran-2-carboxamide (rac)] | 8.73 | 8.25 | 9.04e-09 | 1.03e-07 | 4.29e-08 | > 2e-05 |  |  |  |  |
| CC(C)c1ccc(OCC2CC2(F)F)c(S(=O)(=O)NC(=O)c2cc3c(F)cc(N4CCC4)cc3o2)c1 (racemic) [Example 231, 6-(Azetidin-1-yl)-N-((2-((2,2-difluorocyclopropyl)methoxy)-5-isopropylphenyl)sulfonyl)-4-fluorobenzofuran-2-carboxamide (rac)] | 8.37 | 7.54 | 1.83e-08 | 1.58e-07 | 1.99e-07 | > 2e-05 |  |  |  |  |
| CCOc1cccc(OC)c1S(=O)(=O)NC(=O)c1cc2c(F)cc(N3CCC3)cc2o1 [Example 1, 6-(Azetidin-1-yl)-N-(2-ethoxy-6-methoxybenzene-1-sulfonyl)-4-fluoro-1-benzofuran-2-carboxamide] | 8.06 | 7.68 | 3.89e-08 | 7.18e-08 | 2.13e-07 | > 2e-05 |  |  |  |  |
| CCOc1ccccc1S(=O)(=O)NC(=O)c1cc2c(F)cc(N3CCC3)cc2o1 [Example 2, 6-(Azetidin-1-yl)-N-(2-ethoxybenzene-1-sulfonyl)-4-fluoro-1-benzofuran-2-carboxamide] | 7.34 | 7.02 | 5.54e-08 | 1.64e-07 |  | > 2e-05 | 3.38e-07 |  |  |  |
| O=C(NS(=O)(=O)c1ccccc1-c1ccccc1)c1cc2ccc(N3CCC3)cc2o1 [Example 26, 6-(Azetidin-1-yl)-N-([1,1′-biphenyl]-2-sulfonyl)-1-benzofuran-2-carboxamide] | 6.84 | 6.53 | 3.85e-07 | 5.06e-07 | 3.9e-06 | > 2e-05 |  |  |  |  |
| CC(C)c1cccnc1S(=O)(=O)NC(=O)c1cc2c(F)cc(N3CCC3)cc2o1 [Example 79, 6-(Azetidin-1-yl)-4-fluoro-N-[3-(propan-2-yl)pyridine-2-sulfonyl]-1-benzofuran-2-carboxamide] | 8.02 | 7.87 | 2.1e-08 | 3.61e-08 | 3.9e-08 | > 2e-05 |  |  |  |  |
| CCOc1ccc(C(C)(C)C)cc1S(=O)(=O)NC(=O)c1cc2c(F)cc(N3CC(F)C3)cc2o1 [Example 113, N-(5-tert-butyl-2-ethoxybenzene-1-sulfonyl)-4-fluoro-6-(3-fluoroazetidin-1-yl)-1-benzofuran-2-carboxamide] | 8.35 | 7.94 | 1.08e-08 | 2.94e-08 | 3.7e-08 | > 2e-05 |  |  |  |  |
| CCOc1ccccc1S(=O)(=O)NC(=O)c1cc2c(F)cc(N3CCC3)cc2o1 [Example 126, Sodium [6-(azetidin-1-yl)-4-fluoro-1-benzofuran-2-carbonyl](2-ethoxybenzene-1-sulfonyl)azanide] | 7.25 | 6.55 |  |  |  |  | 1.12e-06 | 9.43e-08 | 3.07e-07 | > 2e-05 |
| CCOc1ccc(C(C)C)cc1S(=O)(=O)NC(=O)c1cc2c(F)cc(N3CCC3)cc2o1 [Example 128, 6-(Azetidin-1-yl)-N-[2-ethoxy-5-(propan-2-yl)benzene-1-sulfonyl]-4-fluoro-1-benzofuran-2-carboxamide] | 8.09 | 7.82 | 1.9e-08 | 6.73e-08 | 2.2e-07 | > 2e-05 |  |  |  |  |
| CC(C)Oc1ccccc1S(=O)(=O)NC(=O)c1cc2c(F)cc(N3CCC3)cc2o1 [Example 129, 6-(Azetidin-1-yl)-4-fluoro-N-{2-[(propan-2-yl)oxy]benzene-1-sulfonyl}-1-benzofuran-2-carboxamide] | 7.44 | 7.29 | 2.74e-08 | 1.42e-07 | 4.11e-07 | > 2e-05 |  |  |  |  |
| Cc1ccc2cccc(S(=O)(=O)NC(=O)c3cc4c(F)cc(N5CCC5)cc4o3)c2n1 [Example 130, 6-(Azetidin-1-yl)-4-fluoro-N-(2-methylquinoline-8-sulfonyl)-1-benzofuran-2-carboxamide] | 7.86 | 7.71 | 3.23e-08 | 8.86e-08 | 2.36e-07 | > 2e-05 |  |  |  |  |
| O=C(NS(=O)(=O)c1ccccc1OC1CC1)c1cc2c(F)cc(N3CCC3)cc2o1 [Example 131, 6-(Azetidin-1-yl)-N-[2-(cyclopropyloxy)benzene-1-sulfonyl]-4-fluoro-1-benzofuran-2-carboxamide] | 7.63 | 7.63 | 3.83e-08 | 2.09e-07 | 7.53e-08 | > 2e-05 |  |  |  |  |
| COc1ccc(C(C)(C)C)cc1S(=O)(=O)NC(=O)c1cc2c(F)cc(N3CC(F)C3)cc2o1 [Example 150, N-(5-tert-butyl-2-methoxybenzene-1-sulfonyl)-4-fluoro-6-(3-fluoroazetidin-1-yl)-1-benzofuran-2-carboxamide] | 8.37 | 8.01 | 5.97e-09 | 5.78e-08 | 4.58e-08 | > 2e-05 |  |  |  |  |
| CCOc1ccc(C(C)C)cc1S(=O)(=O)NC(=O)c1cc2c(F)cc(N3CC(F)C3)cc2o1 [Example 151, N-[2-ethoxy-5-(propan-2-yl)benzene-1-sulfonyl]-4-fluoro-6-(3-fluoroazetidin-1-yl)-1-benzofuran-2-carboxamide] | 8.24 | 7.86 | 1.55e-08 | 5.67e-08 | 6.63e-08 | > 2e-05 |  |  |  |  |
| Cc1ccc2cccc(S(=O)(=O)NC(=O)c3cc4c(F)cc(N5CC(F)C5)cc4o3)c2n1 [Example 152, 4-Fluoro-6-(3-fluoroazetidin-1-yl)-N-(2-methylquinoline-8-sulfonyl)-1-benzofuran-2-carboxamide] | 7.86 | 7.69 | 3.69e-08 | 7.66e-08 | 1.63e-07 | > 2e-05 |  |  |  |  |
| COc1ccc(-c2cn(C)nc2C)cc1S(=O)(=O)NC(=O)c1cc2c(F)cc(N3CCC3)cc2o1 [Example 195, 6-(Azetidin-1-yl)-N-[5-(1,3-dimethyl-1H-pyrazol-4-yl)-2-methoxybenzene-1-sulfonyl]-4-fluoro-1-benzofuran-2-carboxamide] | 8.29 | 7.70 | 1.11e-07 | 1.99e-07 | 8.37e-07 | > 2e-05 |  |  |  |  |
| CC(C)c1ccc(OCc2ccccc2)c(S(=O)(=O)NC(=O)c2cc3c(F)cc(N4CCC4)cc3o2)c1 [Example 213, 6-(azetidin-1-yl)-N-(2-benzyloxy-5-isopropyl-phenyl)sulfonyl-4-fluoro-benzofuran-2-carboxamide] | 8.21 | 7.83 | 3.31e-08 | 1.17e-07 | 1.52e-07 | 1.41e-05 |  |  |  |  |
| CC(C)(C)c1ccc(OC2CC2)c(S(=O)(=O)NC(=O)c2cc3c(F)cc(N4CCC4)cc3o2)c1 [Example 224, 6-(Azetidin-1-yl)-N-[(5-(tert-butyl)-2-cyclopropoxyphenyl)sulfonyl]-4-fluorobenzofuran-2-carboxamide] | 8.43 | 8.01 | 2.76e-08 | 7.5e-08 | 1.14e-07 | 1.77e-05 |  |  |  |  |
| CC(C)(C)c1ccc(OCc2ccccc2)c(S(=O)(=O)NC(=O)c2cc3c(F)cc(N4CCC4)cc3o2)c1 [Example 225, 6-(Azetidin-1-yl)-N-[(2-(benzyloxy)-5-(tert-butyl)phenyl]sulfonyl)-4-fluorobenzofuran-2-carboxamide] | 8.43 | 8.01 | 2.76e-08 | 7.5e-08 | 1.14e-07 | 1.77e-05 |  |  |  |  |
